Patent US6420330B1, “Use of quaternary carboxylic acid alkanolamine ester salts as microbicide agents” (Cognis Deutschland GmbH, priority 1997, dated 2002)

Columns and labels:
Assay in all cases: DGHM suspension test, microbicidal activity
Format in all cases: cell-based
[1] = system: Pseudomonas aeruginosa ATCC 15442
Procedure: (§1) The microbicidal activity of the quanterary carboxylic acid alkanolamine ester salts used in accordance with the invention was tested against the following selected test germs:
(§2) The effectiveness of the compound to be tested was determined by the suspension test in accordance with the guidelines of the Deutsche Gesellschaft for Hygiene and Mikrobiologie (DGHM). Test solutions containing quatemary carboxylic acid alkanolamine ester salts in the quantities shown in the Tables of 50, 100, 200, 400 and 800 mg/l were prepared using water with a hardness of 17° dH and optionally isopropanol.
(§3) At room temperatures, quantities of 0.1 ml test germ suspension were pipetted into test tubes containing 10 ml of the test solutions described above and mixed. After various contact times of 5, 15, 30 and 60 minutes, 1 ml of material was taken from the test tubes by pipette and transferred to 9 ml inactivator solution (inactivators: 3.0% Tween, 0.3% lecithin, 0.1% histidine). After in activation for at least 5 and at most 30 minutes, the living germ count was determined by plating out onto casein peptone-soybean flour peptone (CaSo)-agar plates. Using a spiral plater, the inactivating mixture was directly plated out onto CaSo-agar. The samples were incubated for 24 to 72 hours at 37° C. and macroscopically evaluated for growth. The destruction time or the residual germ count was determined in this way. The germ count of an unchallenged water control is related to the germ count of the inactivated test solution taking the dilution into account. The higher the value, the better the microbicidal effect. The symbol < means that the logarithmic reductuon factor is below the indicated value or, in the case of the symbol >, above the indicated value. The abbreviation CU stands for “concentration used”.

[2] = system: Candida albicans ATCC 10231
Procedure: as §1, §2, §3

[3] = system: Staphylococcus aureus ATCC 6538
Procedure: as §1, §2, §3

[4] = CU 50 mg/l, contact time 5 mins.
[5] = CU 50 mg/l, contact time 15 mins.
[6] = CU 50 mg/l, contact time 30 mins.
[7] = CU 50 mg/l, contact time 60 mins.
[8] = CU 100 mg/l, contact time 5 mins.
[9] = CU 100 mg/l, contact time 15 mins.
[10] = CU 100 mg/l, contact time 30 mins.
[11] = CU 100 mg/l, contact time 60 mins.
[12] = CU 200 mg/l, contact time 5 mins.
[13] = CU 200 mg/l, contact time 15 mins.
[14] = CU 200 mg/l, contact time 30 mins.
[15] = CU 200 mg/l, contact time 60 mins.
[16] = CU 400 mg/l, contact time 5 mins.
[17] = CU 400 mg/l, contact time 15 mins.
[18] = CU 400 mg/l, contact time 30 mins.
[19] = CU 400 mg/l, contact time 60 mins.
[20] = CU 800 mg/l, contact time 5 mins.
[21] = CU 800 mg/l, contact time 15 mins.
[22] = CU 800 mg/l, contact time 30 mins.
[23] = CU 800 mg/l, contact time 60 mins.

## CCCCCCCC(=O)OCC[N+](C)(CCOC(=O)CCCCCCC)CCOC(=O)CCCCCCC.COS(=O)(=O)[O-] [Example 2, methyl triethanolammonium tricaprylic acid ester methosulfate]
[1]; [4]
  logarithmic reduction factor: <1.38
[1]; [5]
  logarithmic reduction factor: <1.70
[1]; [6]
  logarithmic reduction factor: 3.31
[1]; [7]
  logarithmic reduction factor: 3.98
[1]; [8]
  logarithmic reduction factor: <1.38
[1]; [9]
  logarithmic reduction factor: 3.25
[1]; [10]
  logarithmic reduction factor: 3.75
[1]; [11]
  logarithmic reduction factor: 4.49
[1]; [12]
  logarithmic reduction factor: 1.38
[1]; [13]
  logarithmic reduction factor: 3.95
[1]; [14]
  logarithmic reduction factor: 4.40
[1]; [15]
  logarithmic reduction factor: >5.59
[1]; [16]
  logarithmic reduction factor: 4.08
[1]; [17]
  logarithmic reduction factor: >5.70
[1]; [18]
  logarithmic reduction factor: >5.68
[1]; [19]
  logarithmic reduction factor: >5.59
[1]; [20]
  logarithmic reduction factor: 4.42
[1]; [21]
  logarithmic reduction factor: >5.70
[1]; [22]
  logarithmic reduction factor: >5.68
[1]; [23]
  logarithmic reduction factor: >5.59
[2]; [4]
  logarithmic reduction factor: 3.44
[2]; [5]
  logarithmic reduction factor: >4.71
[2]; [6]
  logarithmic reduction factor: >4.82
[2]; [7]
  logarithmic reduction factor: >4.68
[2]; [8]
  logarithmic reduction factor: >4.73
[2]; [9]
  logarithmic reduction factor: >4.71
[2]; [10]
  logarithmic reduction factor: >4.82
[2]; [11]
  logarithmic reduction factor: >4.68
[2]; [12]
  logarithmic reduction factor: >4.73
[2]; [13]
  logarithmic reduction factor: >4.71
[2]; [14]
  logarithmic reduction factor: >4.82
[2]; [15]
  logarithmic reduction factor: >4.68
[2]; [16]
  logarithmic reduction factor: >4.73
[2]; [17]
  logarithmic reduction factor: >4.71
[2]; [18]
  logarithmic reduction factor: >4.82
[2]; [19]
  logarithmic reduction factor: >4.68
[2]; [20]
  logarithmic reduction factor: >4.73
[2]; [21]
  logarithmic reduction factor: >4.71
[2]; [22]
  logarithmic reduction factor: <4.82
[2]; [23]
  logarithmic reduction factor: >4.68
[3]; [4]
  logarithmic reduction factor: 3.21
[3]; [5]
  logarithmic reduction factor: >5.38
[3]; [6]
  logarithmic reduction factor: >5.50
[3]; [7]
  logarithmic reduction factor: >5.41
[3]; [8]
  logarithmic reduction factor: 3.54
[3]; [9]
  logarithmic reduction factor: >5.38
[3]; [10]
  logarithmic reduction factor: >5.50
[3]; [11]
  logarithmic reduction factor: >5.41
[3]; [12]
  logarithmic reduction factor: 4.32
[3]; [13]
  logarithmic reduction factor: >5.38
[3]; [14]
  logarithmic reduction factor: >5.50
[3]; [15]
  logarithmic reduction factor: >5.41
[3]; [16]
  logarithmic reduction factor: >5.56
[3]; [17]
  logarithmic reduction factor: >5.38
[3]; [18]
  logarithmic reduction factor: >5.50
[3]; [19]
  logarithmic reduction factor: >5.41
[3]; [20]
  logarithmic reduction factor: >5.56
[3]; [21]
  logarithmic reduction factor: >5.38
[3]; [22]
  logarithmic reduction factor: >5.50
[3]; [23]
  logarithmic reduction factor: >5.41

## CCCCCCCCC(=O)OCC[N+](C)(C)CCOC(=O)CCCCCCCC.COS(=O)(=O)[O-] [Example 3, dimethyl diethanolammonium dipelargonic acid ester methosulfate]
[1]; [4]
  logarithmic reduction factor: <1.59
[1]; [5]
  logarithmic reduction factor: 2.99
[1]; [6]
  logarithmic reduction factor: 3.58
[1]; [7]
  logarithmic reduction factor: 3.77
[1]; [8]
  logarithmic reduction factor: 4.36
[1]; [9]
  logarithmic reduction factor: >5.58
[1]; [10]
  logarithmic reduction factor: >5.67
[1]; [11]
  logarithmic reduction factor: >5.53
[1]; [12]
  logarithmic reduction factor: >5.59
[1]; [13]
  logarithmic reduction factor: >5.58
[1]; [14]
  logarithmic reduction factor: >5.67
[1]; [15]
  logarithmic reduction factor: >5.53
[1]; [16]
  logarithmic reduction factor: >5.59
[1]; [17]
  logarithmic reduction factor: >5.58
[1]; [18]
  logarithmic reduction factor: >5.67
[1]; [19]
  logarithmic reduction factor: >5.53
[1]; [20]
  logarithmic reduction factor: >5.59
[1]; [21]
  logarithmic reduction factor: >5.58
[1]; [22]
  logarithmic reduction factor: >5.67
[1]; [23]
  logarithmic reduction factor: >5.53
[2]; [4]
  logarithmic reduction factor: 2.86
[2]; [5]
  logarithmic reduction factor: >4.63
[2]; [6]
  logarithmic reduction factor: >4.66
[2]; [7]
  logarithmic reduction factor: >4.67
[2]; [8]
  logarithmic reduction factor: >4.63
[2]; [9]
  logarithmic reduction factor: >4.63
[2]; [10]
  logarithmic reduction factor: >4.66
[2]; [11]
  logarithmic reduction factor: >4.67
[2]; [12]
  logarithmic reduction factor: >4.63
[2]; [13]
  logarithmic reduction factor: >4.63
[2]; [14]
  logarithmic reduction factor: >4.66
[2]; [15]
  logarithmic reduction factor: >4.67
[2]; [16]
  logarithmic reduction factor: >4.63
[2]; [17]
  logarithmic reduction factor: >4.63
[2]; [18]
  logarithmic reduction factor: >4.66
[2]; [19]
  logarithmic reduction factor: >4.67
[2]; [20]
  logarithmic reduction factor: >4.63
[2]; [21]
  logarithmic reduction factor: >4.63
[2]; [22]
  logarithmic reduction factor: >4.66
[2]; [23]
  logarithmic reduction factor: >4.67
[3]; [4]
  logarithmic reduction factor: <1.31
[3]; [5]
  logarithmic reduction factor: 2.31
[3]; [6]
  logarithmic reduction factor: 3.01
[3]; [7]
  logarithmic reduction factor: 4.85
[3]; [8]
  logarithmic reduction factor: <1.31
[3]; [9]
  logarithmic reduction factor: 3.67
[3]; [10]
  logarithmic reduction factor: >5.19
[3]; [11]
  logarithmic reduction factor: >5.55
[3]; [12]
  logarithmic reduction factor: 2.05
[3]; [13]
  logarithmic reduction factor: >5.74
[3]; [14]
  logarithmic reduction factor: >5.19
[3]; [15]
  logarithmic reduction factor: >5.55
[3]; [16]
  logarithmic reduction factor: 3.25
[3]; [17]
  logarithmic reduction factor: >5.74
[3]; [18]
  logarithmic reduction factor: >5.19
[3]; [19]
  logarithmic reduction factor: >5.55
[3]; [20]
  logarithmic reduction factor: 3.78
[3]; [21]
  logarithmic reduction factor: >5.74
[3]; [22]
  logarithmic reduction factor: >5.19
[3]; [23]
  logarithmic reduction factor: >5.55
